pIC50: −log10 of the molar value. Read-outs that look alike come from different tables or passages of the source.
Experiments:
[1] = biological target: T1, ENPP-1, MDA-MB-231 cells (Homo sapiens, UniProt P22413); assay: cell-based; settings: for inhibition at 20 µM: MDA-MB-231, read-out: % Inhibition (at 20 μM)
T1 sequence (P22413 1-925): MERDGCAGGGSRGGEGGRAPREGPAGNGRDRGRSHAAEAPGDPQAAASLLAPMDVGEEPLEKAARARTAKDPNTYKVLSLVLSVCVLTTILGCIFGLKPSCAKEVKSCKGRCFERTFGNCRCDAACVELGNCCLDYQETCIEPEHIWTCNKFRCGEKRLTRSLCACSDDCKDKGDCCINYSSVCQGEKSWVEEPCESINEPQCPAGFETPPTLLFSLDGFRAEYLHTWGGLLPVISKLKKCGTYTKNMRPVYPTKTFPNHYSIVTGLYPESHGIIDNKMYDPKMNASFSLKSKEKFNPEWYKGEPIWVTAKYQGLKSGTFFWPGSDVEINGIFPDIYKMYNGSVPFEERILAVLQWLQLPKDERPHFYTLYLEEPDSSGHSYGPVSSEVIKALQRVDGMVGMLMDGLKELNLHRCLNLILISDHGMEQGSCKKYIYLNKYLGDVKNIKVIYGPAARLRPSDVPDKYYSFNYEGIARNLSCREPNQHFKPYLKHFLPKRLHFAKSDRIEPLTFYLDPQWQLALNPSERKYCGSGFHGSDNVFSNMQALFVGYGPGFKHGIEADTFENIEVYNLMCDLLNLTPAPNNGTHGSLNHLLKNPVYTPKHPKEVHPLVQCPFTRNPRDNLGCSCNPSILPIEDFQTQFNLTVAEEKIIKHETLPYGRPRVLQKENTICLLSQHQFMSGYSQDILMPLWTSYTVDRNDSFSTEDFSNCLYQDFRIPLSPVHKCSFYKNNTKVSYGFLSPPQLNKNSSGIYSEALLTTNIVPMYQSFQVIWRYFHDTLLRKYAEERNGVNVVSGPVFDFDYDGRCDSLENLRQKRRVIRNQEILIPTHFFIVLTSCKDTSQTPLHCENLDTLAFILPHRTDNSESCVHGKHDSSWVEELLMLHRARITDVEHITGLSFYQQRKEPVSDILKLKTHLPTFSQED

[2] = biological target: T2, ENPP-1, HEK293 cells (Homo sapiens, UniProt P22413); assay: Cellular enzymatic assay of ENPP-1 inhibitors using TMP-pNP as substrate, HEK 293 cells; assay type: cell-based
T2 construct: ENPP-1 were mainly expressed on the surface of cell membrane; endogenous in cells; host or cells: HEK293
T2 sequence (P22413 1-925): T1 sequence (P22413 1-925)
Experimental: (§1) ENPP-1 were mainly expressed on the surface of cell membrane where it hydrolytes 2′3′-cGAMP to generate 5′-GMP and 5′-AMP. ENPP-1 also has the ability to hydrolyzes artificial phosphoric acid ester TMP-pNP to nucleotide-5′-monophosphate and p-nitrophcnol there, which is a chromogenic product.
(§2) 8 point of different concentrations of each inhibitor were prepared with the final assay concentrations starting at 20 μM. 3× series dilution by DMEM medium without FBS was applied. Prior to adding inhibitors, 75000 cells per well were incubated at 37° C., 5% CO2 in DMEM for 24 hours. After removing the supernatant medium, 50 μL inhibitor solution was added into each well with cultured cells and incubate at 37° C., 5% CO2 for 60 minutes.
(§3) The IC50 values for percent inhibition versus compound concentration are determined by fitting the inhibition curves using a four-parameter variable slope model in GraphPad Prism® 8.

[3] = biological target: T3, human soluble ENPP1 (Homo sapiens, UniProt P22413); assay: ENPP1 activity assay using p-Nitrophenyl-5′-TMP as a substrate; assay type: biochemical
T3 construct: 20 ng of human soluble ENPP1
T3 sequence (P22413 103-925 limits assumed): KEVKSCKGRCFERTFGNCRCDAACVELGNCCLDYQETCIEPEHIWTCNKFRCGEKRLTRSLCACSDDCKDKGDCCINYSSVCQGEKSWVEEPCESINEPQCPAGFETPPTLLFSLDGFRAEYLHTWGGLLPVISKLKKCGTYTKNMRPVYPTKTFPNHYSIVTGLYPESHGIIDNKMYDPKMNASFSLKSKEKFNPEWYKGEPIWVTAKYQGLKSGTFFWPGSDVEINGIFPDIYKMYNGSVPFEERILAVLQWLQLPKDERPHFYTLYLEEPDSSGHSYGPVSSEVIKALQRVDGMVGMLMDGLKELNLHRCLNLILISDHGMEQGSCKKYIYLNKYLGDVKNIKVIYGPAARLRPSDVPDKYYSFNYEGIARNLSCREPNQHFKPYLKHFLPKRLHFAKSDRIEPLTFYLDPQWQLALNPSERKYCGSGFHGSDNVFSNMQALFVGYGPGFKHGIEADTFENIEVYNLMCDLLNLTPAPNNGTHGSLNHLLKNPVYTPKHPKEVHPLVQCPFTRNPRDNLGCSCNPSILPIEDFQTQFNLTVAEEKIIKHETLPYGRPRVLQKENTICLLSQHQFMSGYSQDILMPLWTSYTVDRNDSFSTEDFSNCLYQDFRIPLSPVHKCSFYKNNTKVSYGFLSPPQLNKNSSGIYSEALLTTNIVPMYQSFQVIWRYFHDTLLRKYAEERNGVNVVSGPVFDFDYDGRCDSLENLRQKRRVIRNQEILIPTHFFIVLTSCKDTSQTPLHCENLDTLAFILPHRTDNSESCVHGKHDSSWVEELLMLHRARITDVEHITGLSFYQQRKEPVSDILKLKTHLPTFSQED
Summary of the method: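 Human soluble ENPP1 (20 ng) was preincubated with inhibitor for 30 min at room temperature. TMP-pNP was then added as a 2 mM […] solution and incubated 1 h at RT, with p-nitrophenol formation read by OD. IC50 came from four-parameter fits of % inhibition relative to no-inhibitor and blank controls.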

[4] = Pharmacokinetics in mice; assay type: in vivo; settings: mouse, plasma, male CD-1 mice; for AUC / clearance / half-life / Vd: 1 mg/kg, iv; for Vd: read-out: Vdss; for bioavailability: oral gavage (PO) at 5 mg/kg vs IV 1 mg/kg
Experimental: A dosing solution of test sample was prepared at 1.0 mg/mL in 5% DMSO/40% PEG400/55% water and administered to male CD-1 mice (4-6 weeks old, 20-30 grams, 3 animals each group) via intravenous (IV) bolus at 1 mg/kg and by oral gavage (PO) at 5 mg/kg. Blood samples (˜0.03 mL each time point) were collected via the jugular vein into tubes containing sodium heparin as the anticoagulant at 0.033, 0.083, 0.25, 0.5, 1, 2, 4, 8 and 24 hours post dose for IV administration and 0.083, 0.25, 0.5, 1, 2, 4, 8 and 24 hours post dose for PO administration. The blood samples were then centrifuged for 5 minutes in a centrifuge refrigerated at 4° C. The resultant plasma samples were analyzed using LC/MS/MS to determine concentrations of test sample. Non-compartmental model with WinNonlin (Phoenix™, version 8.0) software was used to calculate pharmacokinetic (PK) parameters.

[5] = biological target: T3, human soluble ENPP1; assay: ENPP1 activity assay using p-Nitrophenyl-5′-AMP as a substrate; assay type: biochemical
Summary of the method: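 Human soluble ENPP1 (35 ng) preincubated with inhibitor 30 min at RT, then p-nitrophenyl-5′-AMP added (3 mM solution, 2× final) and incubated 1 h at RT. p-Nitrophenolate release read at OD 405 nm; % inhibition vs no-inhibitor and blank controls, IC50 from four-parameter fit.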

[6] = biological target: T4, ENPP-1, Saos-2 cells (Homo sapiens, UniProt P22413); assay: Cellular enzymatic assay of ENPP-1 inhibitors using TMP-pNP as substrate, Saos-2 cells; assay type: cell-based
T4 construct: ENPP-1 were mainly expressed on the surface of cell membrane; endogenous in cells; host or cells: Saos-2
T4 sequence (P22413 1-925): T1 sequence (P22413 1-925)
Experimental: as §1, §2, §3

[7] = Liver microsome stability, mouse; assay type: in vitro ADME
Experimental: Liver microsome assay was used to evaluate the metabolic stability of I-VI. The test article at the concentration of […] was incubated with 0.5 mg/mL liver microsome in the presence of NADPH and UDPGA as the co-factors for 0, 15, 30, 45 and 60 minutes. The incubation was carried out at 37° C. with 5% CO2 and saturating humidity. Disappearance of the test article was monitored by LC/MS/MS. the disappearance half-life (t1/2), intrinsic clearance and hepatic extraction ratio were determined.

[8] = HEK293, read-out: Inhibition (at 20 μM)
[9] = HEK293, HEK 293 cells, at 20 μM, read-out: Inhibition (at 20 μM)

bioavailability [4]	Compound	pIC50 [1]	inhibition at 20 µM [1]	pIC50 [2]	inhibition at 20 µM [2, 8]	pIC50 [3]	AUC [4]	clearance [4]	half-life [4]	Vd [4]	pIC50 [5]	inhibition at 20 µM [2, 9]	pIC50 [6]	inhibition at 20 µM ([6]; SAOS-2, read-out: % Inhibition (@20 μM))	Hepatic extraction ratio Re ([7]; Mouse liver microsome)	half-life ([7]; liver microsomes, Mouse liver microsome 0.5 mg/mL, NADPH and UDPGA, 37° C., read-out: Half-life t1/2)	microsomal CLint ([7]; liver microsomes, Mouse liver microsome, read-out: Intrinsic clearance Cl′int, (μL/min/mg protein))
	COc1ccc2c(ncc3ncn(Cc4ccc(S(N)(=O)=O)cn4)c32)n1 [Compound 40, 6-((7-methoxy-1H-imidazo[4,5-c][1,8]naphthyridin-1-yl)methyl)pyridine-3-sulfonamide]	7.19	85%	6.89	96%	9.82	241 ng·h/mL	70 mL/min/kg	2.7 h	7.3 L/kg	9.64						
	COc1ccc2c(ncc3ncn(Cc4ccc(S(N)(=O)=O)cc4)c32)n1 [Compound 39, 4-((7-methoxy-1H-imidazo[4,5-c][1,8]naphthyridin-1-yl)methyl)benzenesulfonamide]	6.40	82%	6.14		9.60	115 ng·h/mL	115 mL/min/kg	0.33 h	3.1 L/kg	9.38	94%					
	COc1ccc2ncc3ncn(Cc4ccc(S(N)(=O)=O)cc4)c3c2c1 [Compound 36, 4-((8-methoxy-1H-imidazo[4,5-c]quinolin-1-yl)methyl)benzenesulfonamide]	5.82	66%	5.30	57%	8.51					7.44		5.70	48%	0.55	0.817 h	28 µL/min/mg
	COc1ccc2c(ncc3nc(C(F)(F)F)n(Cc4ccc(S(N)(=O)=O)cc4)c32)n1 [Compound 47, 4-((7-methoxy-2-(trifluoromethyl)-1H-imidazo[4,5-c][1,8]naphthyridin-1-yl)methyl)benzenesulfonamide]	5.47	72%	5.30		9.00						77%					
	COc1ccc2c(ncc3ncn(Cc4ccc(NS(N)(=O)=O)cc4)c32)n1 [Compound 46, 4-((7-methoxy-1H-imidazo[4,5-c][1,8]naphthyridin-1-yl)methyl)phenyl sulfamide]	5.80	75%	5.62	85%	8.28											
8.4%	COc1ccc2c(ncc3[nH]c(=O)n(Cc4ccc(S(N)(=O)=O)cc4F)c32)n1 [Compound 102, 3-fluoro-4-((7-methoxy-2-oxo-2,3-dihydro-1H-imidazo[4,5-c][1,8]naphthyridin-1-yl)methyl)benzenesulfonamide]	6.37	86%			9.29	657 ng·h/mL	26 mL/min/kg	5.1 h	5.2 L/kg	9.13						
	COc1ccc2c(ncc3ncn(CC4CN(S(N)(=O)=O)C4)c32)n1 [Compound 52, 3-((7-methoxy-1H-imidazo[4,5-c][1,8]naphthyridin-1-yl)methyl)azetidine-1-sulfonamide]	5.89	79%			9.27	179 ng·h/mL	103 mL/min/kg	0.35 h	1.1 L/kg	8.66						
	COc1cnc2c(c1)ncc1ncn(Cc3ccc(S(N)(=O)=O)cc3)c12 [Compound 49, 4-((7-methoxy-1H-imidazo[4,5-c][1,5]naphthyridin-1-yl)methyl)benzenesulfonamide]	5.22	67%	5.00		8.72					8.32	67%					
	COc1ccc2c(ncc3ncn(Cc4ccc(S(N)(=O)=O)nc4)c32)n1 [Compound 41, 5-((7-methoxy-1H-imidazo[4,5-c][1,8]naphthyridin-1-yl)methyl)pyridine-2-sulfonamide]	6.51	81%	6.18		9.68	227 ng·h/mL	74 mL/min/kg	1.2 h	4 L/kg	9.05	96%					
33%	COc1ccc2c(ncc3c2n(Cc2c(F)cc(S(N)(=O)=O)cc2F)c(=O)n3C)n1 [Compound 114, 3,5-difluoro-4-((7-methoxy-3-methyl-2-oxo-2,3-dihydro-1H-imidazo[4,5-c][1,8]naphthyridin-1-yl)methyl)benzenesulfonamide]	7.10	77%			9.57	454 ng·h/mL	37 mL/min/kg	3.9 h	12 L/kg	9.64						

Source: US11673889B2, “Substituted imidazo[4,5-c][1,8]naphthyridines as phosphodiesterase inhibitors” (Nanjing Zhengxiang Pharmaceuticals Co., Ltd., priority 2019, dated 2023)
